Test results: the supplement of paper PMC4862054
“And” between values parts separate entries of the source, which are not always exact repeats. Equal entries are not always repeated.

How the values were obtained:
Conditions in all cases: incubation time: 72 h
[1] = test system: BT-549; experiment: normalised viability (% of control), CellTiter-Blue; higher = more viable cells (about 100 = DMSO control)
Summary of the method: (§1)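 The reported quantity is normalised viability at a single listed concentration of the series. Compound in 5 µl medium was pre-dispensed into 384-well plates and 20 µl of breast cancer cell suspension was added for 72 h. A 2 h, 37 °C CellTiter-Blue step (2.5 µl) preceded fluorescence reading at 560/590 nm, and plates were normalised to vehicle (100) and a positive kill control (0).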

[2] = test system: CAL-120; experiment: as above
Summary of the method: as §1

[3] = test system: CAL-51; experiment: as above
Summary of the method: as §1

[4] = test system: CAL-85-1; experiment: as above
Summary of the method: as §1

[5] = test system: DU-4475; experiment: as above
Summary of the method: as §1

[6] = test system: HCC1143; experiment: as above
Summary of the method: as §1

[7] = test system: HCC1599; experiment: as above
Summary of the method: as §1

[8] = test system: HCC1937; experiment: as above
Summary of the method: as §1

[9] = test system: Hs578T; experiment: as above
Summary of the method: as §1

[10] = test system: MDA-MB-453; experiment: as above
Summary of the method: as §1

[11] = test system: MDA-MB-468; experiment: as above
Summary of the method: as §1

[12] = test system: MFM-223; experiment: as above
Summary of the method: as §1

[13] = test system: SK-BR-3; experiment: as above
Summary of the method: as §1

[14] = test system: BT-474; experiment: drug sensitivity score (DSS), CellTiter-Blue viability (DSS (AUC-based score)); higher = stronger viability inhibition; extreme values may be limits of the assay
Description: (§2)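 DSRT with the CellTiter-Blue (resazurin reduction) viability readout, fluorescence 560/590 nm, 72 h incubation. Plates were normalised to DMSO and benzethonium chloride controls. DSS is computed from the area under the fitted dose-response curve (5 or 9 concentrations).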

[15] = test system: BT-549; experiment: as above
Description: as §2

[16] = test system: CAL-120; experiment: as above
Description: as §2

[17] = test system: CAL-51; experiment: as above
Description: as §2

[18] = test system: CAL-85-1; experiment: as above
Description: as §2

[19] = test system: DU-4475; experiment: as above
Description: as §2

[20] = test system: HCC1143; experiment: as above
Description: as §2

[21] = test system: HCC1599; experiment: as above
Description: as §2

[22] = test system: HCC1937; experiment: as above
Description: as §2

[23] = test system: HDQ-P1; experiment: as above
Description: as §2

[24] = test system: Hs578T; experiment: as above
Description: as §2

[25] = test system: MDA-MB-436; experiment: as above
Description: as §2

[26] = test system: MDA-MB-453; experiment: as above
Description: as §2

[27] = test system: MDA-MB-468; experiment: as above
Description: as §2

[28] = test system: MFM-223; experiment: as above
Description: as §2

[29] = test system: SK-BR-3; experiment: as above
Description: as §2

Structure (SMILES) | drug sensitivity score [14] | drug sensitivity score [15] | drug sensitivity score [16] | drug sensitivity score [17] | drug sensitivity score [18] | drug sensitivity score [19] | drug sensitivity score [20] | drug sensitivity score [21] | drug sensitivity score [22] | drug sensitivity score [23] | drug sensitivity score [24] | drug sensitivity score [25] | drug sensitivity score [26] | drug sensitivity score [27] | drug sensitivity score [28] | drug sensitivity score [29] | normalised viability ([1]; 1000 nM) | normalised viability ([2]; 1000 nM) | normalised viability ([3]; 10 nM) | normalised viability ([4]; 10 nM) | also measured
CNNCc1ccc(C(=O)NC(C)C)cc1 [Procarbazine] | 0 | 0 | 0 | 0 | 0 | 0 | 0 | 0 | 0 | 0 | 0 | 0.866 | 0 | 0 | 0 | 0 | – | – | – | – | normalised viability ([1]; 10000 nM): 89.5%; normalised viability ([2]; 10000 nM): 88.2%; normalised viability ([3]; 100 nM): 96.4%; normalised viability ([4]; 100 nM): 89.2%; normalised viability ([5]; 100 nM): 91.3%; normalised viability ([6]; 10000 nM): 93.6%; normalised viability ([7]; 10000 nM): 90%; normalised viability ([8]; 10000 nM): 81.7%; normalised viability ([9]; 10000 nM): 114%; normalised viability ([10]; 100 nM): 109%; normalised viability ([11]; 10000 nM): 112%; normalised viability ([12]; 10000 nM): 97.8%; normalised viability ([13]; 10000 nM): 106%
C/C(=C\c1csc(C)n1)[C@@H]1C[C@@H]2O[C@]2(C)CCC[C@H](C)[C@H](O)[C@@H](C)C(=O)C(C)(C)[C@@H](O)CC(=O)O1 [Patupilone] | 18.2 | 22.4 | 19.8 | 20.4 | 24.6 | 22.3 | 16.3 | 1.08 | 27 | 12.2 | 23.1 | 15.4 | 22.5 | 15.3 | 12.7 | 23.7 | 22.1% | 23.4% | 59.1% | 33.9% | normalised viability ([5]; 10 nM): 57.5%; normalised viability ([6]; 1000 nM): 32%; normalised viability ([7]; 1000 nM): 79.3%; normalised viability ([8]; 1000 nM): 20.4%; normalised viability ([9]; 1000 nM): 13.2%; normalised viability ([10]; 10 nM): 47.3%; normalised viability ([11]; 1000 nM): 54.8%; normalised viability ([12]; 1000 nM): 45.7%; normalised viability ([13]; 1000 nM): 15.2%
CO[C@H]1C[C@@H]2CC[C@@H](C)[C@@](O)(O2)C(=O)C(=O)N2CCCC[C@H]2C(=O)O[C@H]([C@H](C)C[C@@H]2CC[C@@H](OCCO)[C@H](OC)C2)CC(=O)[C@H](C)/C=C(\C)[C@@H](O)[C@@H](OC)C(=O)[C@H](C)C[C@H](C)/C=C/C=C/C=C/1C [Everolimus] | 13.2 and 16 | 9.4 and 21.3 | 19.7 and 24.1 | 22.7 and 22.2 | 15 and 16.7 | 12.8 and 16.3 | – | – | – | – | – | 0 | 29.7 and 31.6 | 6.16 and 13.5 | 20 and 19.4 | 16.9 and 20.1 | 56.4% and 46.6% | 53.2% and 38.1% | 39.8% and 39.5% | 68.8% and 61.3% | normalised viability ([5]; 10 nM): 64.3% and 57.3%; normalised viability ([7]; 1000 nM): 86.7% and 68.9%; normalised viability ([8]; 1000 nM): 45.8% and 46.6%; normalised viability ([9]; 1000 nM): 53.2% and 41.5%; normalised viability ([10]; 10 nM): 32.7% and 28.1%; normalised viability ([11]; 1000 nM): 56.8% and 64.2%; normalised viability ([12]; 1000 nM): 51.6% and 26.8%; normalised viability ([13]; 1000 nM): 55.1% and 36.7%
